Experimental data reported in patent publication US4416885A, “Use of isopropylaminopyrimidine in the chemotherapy of muscular dystrophy, myopathy and myotonia” (priority 1982, dated 1983).

Tests used:
normal chickens 412 = test: Experiment 4, weight of normal chickens injected with IAPP; format: in vivo, chicken; conditions: 50 mg/Kg
Method: All chickens were injected with 50 mg/Kg IAPP and weighed approximately every second or third day.
A: Control-injected with PBS
B, C, D: Experimental-injected with 50 mg/Kg IAPP

[1] = test system: pectoral muscle fibre of dystrophic chickens; test: Histopathology of pectoral muscle; format: in vivo, chicken; conditions: for % Fibre Splitting / % Phagocytosis / Hypertrophy Factor / Mean Endomysial Area / Nuclei/Fibre / Peripheral Nuclei (% of Total) / Range (endomysial area) / Variability Coefficient: 30 days
Description: Muscle fibre area increase greatly in the dystrophic chicken as does the range of fibre area sizes. Nuclei become displaced peripherally and both features can be measured quantitatively and compared with normal controls.
The main difference between 4-week (FIG. 1A) and 7-week old (FIG. 2A) normal muscle from pectoral biopsies, at the light microscopic level, is with regard to myofibre growth. There is an increase in fibre area and a redistribution of the position and number of muscle nuclei. The latter change from a random distribution in the fibre in the 4-week bird to a central location in the 7-week bird of about 80% of the nuclei. The fibres are closely packed, with very little connective tissue present and every fibre is clearly polygonal in shape.
In contrast, dystrophic pectoral muscle has very few fibres which appear normal at 4 weeks of age. They are nearly all rounded in shape (as opposed to polygonal) and many are hypertrophic. Longitudinal fibre splitting occurs and the muscle nuclei lie preferentially against the sarcolemma (FIG. 1B). There is a large increase in perimysial connective tissue. By 7 weeks, massive hypertrophy occurs (FIG. 2B). Fibre splitting leads to hyperplasia. […] Pyknotic nuclei appear, and the muscle nuclei are randomly scattered throughout the fibre. Connective tissue often appears very dense. Some fibres are starting to atrophy and fatty tissue replacement can sometimes be seen at this stage.

`CC(C)Nc1ncccn1.O=P(O)(O)O` [IAPP, 2-isopropylaminopyrimidine orthophosphate] was tested, and the Weight (normal chickens 412; Exp. 4, 412B, day 1) was 51.3 GRAMS, the Weight (normal chickens 412; Exp. 4, 412B, day 4) was 55.8 GRAMS and the Weight (normal chickens 412; Exp. 4, 412B, day 7) was 67.6 GRAMS. The Weight (normal chickens 412; Exp. 4, 412B, day 9) was 68.1 GRAMS, the Weight (normal chickens 412; Exp. 4, 412C, day 1) was 50.8 GRAMS and the Weight (normal chickens 412; Exp. 4, 412C, day 4) was 59.9 GRAMS. For the same molecule, the Weight (normal chickens 412; Exp. 4, 412C, day 7) was 67.8 GRAMS, the Weight (normal chickens 412; Exp. 4, 412C, day 9) was 67.7 GRAMS and the Weight (normal chickens 412; Exp. 4, 412C, day 11) was 76.4 GRAMS. It also gave a Weight (normal chickens 412; Exp. 4, 412C, day 14) of 111.8 GRAMS, a Weight (normal chickens 412; Exp. 4, 412C, day 16) of 139.0 GRAMS and a Weight (normal chickens 412; Exp. 4, 412C, day 17) of 150.2 GRAMS. The Weight (normal chickens 412; Exp. 4, 412D, day 1) was 52.6 GRAMS, the Weight (normal chickens 412; Exp. 4, 412D, day 4) was 60.5 GRAMS and the Weight (normal chickens 412; Exp. 4, 412D, day 7) was 67.7 GRAMS. The Weight (normal chickens 412; Exp. 4, 412D, day 9) was 67.7 GRAMS, the Weight (normal chickens 412; Exp. 4, 412D, day 11) was 76.6 GRAMS and the Weight (normal chickens 412; Exp. 4, 412D, day 14) was 112.8 GRAMS. It also gave a Weight (normal chickens 412; Exp. 4, 412D, day 16) of 139.6 GRAMS, a Weight (normal chickens 412; Exp. 4, 412D, day 20) of 191.5 GRAMS and a Weight (normal chickens 412; Exp. 4, 412D, day 22) of 246.4 GRAMS. The Weight (normal chickens 412; Exp. 4, 412D, day 25) was 273.4 GRAMS, the “% Fibre Splitting” value ([1]; 150 mg) was 3.0% and the “% Phagocytosis” value ([1]; 150 mg) was 0.0%. For the same molecule, the “Hypertrophy Factor” value ([1]; 150 mg) was 125, the “Mean Endomysial Area” value ([1]; 150 mg) was 1025 μm^2 and the Nuclei/Fibre ([1]; 150 mg) was 2.5. The “Peripheral Nuclei (% of Total)” value ([1]; 150 mg) was 46.1 % of Total, the “Range (endomysial area)” value ([1]; 150 mg) was 82-2001 μm^2 and the “Variability Coefficient” value ([1]; 150 mg) was 416. For the same molecule, the Fibres still polygonal ([1]; 150 mg/Kg daily, 7 week old biopsy) was 50%, the “% Fibre Splitting” value ([1]; 200 mg) was 8.4% and the “% Phagocytosis” value ([1]; 200 mg) was 1.6%. For the same molecule, the “Hypertrophy Factor” value ([1]; 200 mg) was 460, the “Mean Endomysial Area” value ([1]; 200 mg) was 763 μm^2 and the Nuclei/Fibre ([1]; 200 mg) was 2.5. The “Peripheral Nuclei (% of Total)” value ([1]; 200 mg) was 59.1 % of Total, the “Range (endomysial area)” value ([1]; 200 mg) was 54-2554 μm^2 and the “Variability Coefficient” value ([1]; 200 mg) was 709. For the same molecule, the “% Fibre Splitting” value ([1]; 300 mg (3× wk.)) was 3.0%, the “% Phagocytosis” value ([1]; 300 mg (3× wk.)) was 0.0% and the “Hypertrophy Factor” value ([1]; 300 mg (3× wk.)) was 10. For the same molecule, the “Mean Endomysial Area” value ([1]; 300 mg (3× wk.)) was 449 μm^2, the Nuclei/Fibre ([1]; 300 mg (3× wk.)) was 1.3 and the “Peripheral Nuclei (% of Total)” value ([1]; 300 mg (3× wk.)) was 40.9 % of Total. For the same molecule, the “Range (endomysial area)” value ([1]; 300 mg (3× wk.)) was 51-1060 μm^2, the “Variability Coefficient” value ([1]; 300 mg (3× wk.)) was 518 and the “% Fibre Splitting” value ([1]; 300 mg) was 10.3%. For the same molecule, the “% Phagocytosis” value ([1]; 300 mg) was 0.3%, the “Hypertrophy Factor” value ([1]; 300 mg) was 100 and the “Mean Endomysial Area” value ([1]; 300 mg) was 552 μm^2. The Nuclei/Fibre ([1]; 300 mg) was 1.7, the “Peripheral Nuclei (% of Total)” value ([1]; 300 mg) was 42.1 % of Total and the “Range (endomysial area)” value ([1]; 300 mg) was 24-1226 μm^2. For the same molecule, the “Variability Coefficient” value ([1]; 300 mg) was 580, the “Muscle appearance vs normal muscle” value ([1]; 300 mg/Kg 3 times/week at 30 days) was “indistinguishable from normal muscle” and the “Dosage at which histological parameters most closely approximate normal values” ([1]; i.p.) was 300 mg/Kg. For the same molecule, the Muscle morphology ([1]; oral 1 g/Kg daily for 35 days) was “marked improvements in the muscle morphology”.
